Values of other authors, collected in patent EP1844783A1 (priority 2006, dated 2007).

Tested on: EAE
Conditions: Craner et al., 2005

O=C1NC(=O)C(c2ccccc2)(c2ccccc2)N1 [phenytoin]
ameliorates the inflammatory cell infiltrate in EAE: 75%
